Results on eleven compounds are retold here after patent US20220089598A1, “INHIBITORS OF HUMAN IMMUNODEFICIENCY VIRUS REPLICATION” (VIIV HEALTHCARE UK (No. 5) LIMITED, priority 2018, published 2022).

Each structure is given as a SMILES string. Where only a bound is given, the exact number is not on record here.

Data set [1] has as its system recombinant NL4-3 virus (Renilla luciferase) in MT-2 cells. Briefly: HIV cell culture assay (antiviral activity, luciferase readout). The settings on record: Renilla, NL43. The data set is classed as cell-based. As to the method:
HIV cell culture assay—MT-2 cells, 293T cells and the proviral DNA clone of NL4-3 virus were obtained from the NIH AIDS Research and Reference Reagent Program. MT-2 cells were propagated in RPMI 1640 media supplemented with 10% heat inactivated fetal bovine serum (FBS), 100 μg/ml penicillin G and up to 100 units/mL streptomycin. The 293T cells were propagated in DMEM media supplemented with 10% heat inactivated FBS, 100 μg/mL penicillin G and 100 μg/mL streptomycin. A recombinant NL4-3 proviral clone, in which a section of the nef gene was replaced with the Renilla luciferase gene, was used to make the reference virus used in these studies. The recombinant virus was prepared through transfection of the recombinant NL4-3 proviral clone into 293T cells using Transit-293 Transfection Reagent from Mirus Bio LLC (Madison, Wis.). Supernatent was harvested after 2-3 days and the amount of virus present was titered in MT-2 cells using luciferase enzyme activity as a marker by measuring luciferase enzyme activity. Luciferase was quantitated using the EnduRen Live Cell Substrate from Promega (Madison, Wis.). Antiviral activities of compounds toward the recombinant virus were quantified by measuring luciferase activity in MT-2 cells infected for 4-5 days with the recombinant virus in the presence of serial dilutions of the compound.
The 50% effective concentration (EC50) was calculated by using the exponential form of the median effect equation where (Fa)=1/[1+(ED50/drug conc.)m] (Johnson V A, Byington R T. Infectivity Assay. In Techniques in HIV Research. ed. Aldovini A, Walker B D. 71-76. New York: Stockton Press. 1990).

Data set [2] can be described thus: Compound cytotoxicity, XTT-based colorimetric assay. In kind it is cell-based. As to conditions: human; uninfected MT2 cells, day 4, XTT assay. As to the method:
Compound cytotoxicity and the corresponding CC50 values were determined using the same protocol as described in the antiviral assay except that uninfected cells were used. Cytotoxicity was assessed on day 4 in uninfected MT2 cells by using a XTT (2,3-bis[2-Methoxy-4-nitro-5-sulfophenyl]-2H-tetrazolium-5-carboxyanilide inner salt)-based colorimetric assay (Sigma-Aldrich, St Louis, Mo.).
(Tetrazolium assays rely on reduction of a dye to a coloured formazan, in cell work by metabolically active cells.)

A word on the EC50: it is the midpoint of the concentration-response curve. Usually CC50 stands for the concentration at which the toxic effect on the cells reaches its halfway point. A lower CC50 goes with harm at low concentration. In the case of `Cn1nc(NS(C)(=O)=O)c2c(Cl)ccc(-n3c([C@H](Cc4cc(F)cc(F)c4)NC(=O)Cn4nc(C(F)F)c5c4C(F)(F)[C@@H]4C[C@H]54)nc4nc(-c5cccc(S(C)(=O)=O)c5)ccc4c3=O)c21` (atropisomer, axis not shown; (P)) [Example 23, N—((S)-1-((3P)-3-(4-chloro-1-methyl-3-(methylsulfonamido)-1H-indazol-7-yl)-7-(3-(methylsulfonyl)phenyl)-4-oxo-3,4-dihydropyrido[2,3-d]pyrimidin-2-yl)-2-(3,5-difluorophenyl)ethyl)-2-((3bS,4aR)-3-(difluoromethyl)-5,5-difluoro-3b,4,4a,5-tetrahydro-1H-cyclopropa[3,4]cyclopenta[1,2-c]pyrazol-1-yl)acetamide], the EC50 in data set [1] turned out to be 0.065 nM. Besides, the CC50 at 4 day in data set [2] was over 100 nM.

As to `Cn1nc(NS(C)(=O)=O)c2c(Cl)ccc(-n3c([C@H](Cc4cc(F)cc(F)c4)NC(=O)Cn4nc(C(F)(F)F)c5c4C(F)(F)[C@@H]4C[C@H]54)nc4nc(-c5ccc(F)cc5F)ccc4c3=O)c21` (atropisomer, axis not shown; (P)) [Example 24, N—((S)-1-((3P)-3-(4-chloro-1-methyl-3-(methylsulfonamido)-1H-indazol-7-yl)-7-(2,4-difluorophenyl)-4-oxo-3,4-dihydropyrido[2,3-d]pyrimidin-2-yl)-2-(3,5-difluorophenyl)ethyl)-2-((3bS,4aR)-5,5-difluoro-3-(trifluoromethyl)-3b,4,4a,5-tetrahydro-1H-cyclopropa[3,4]cyclopenta[1,2-c]pyrazol-1-yl)acetamide], the EC50 in data set [1] was found to be 0.067 nM. In data set [2], this compound returned a CC50 at 4 day of over 500 nM.

For the compound `Cn1nc(NS(C)(=O)=O)c2c(Cl)ccc(-n3c([C@H](Cc4cc(F)cc(F)c4)NC(=O)Cn4nc(C(F)F)c5c4C(F)(F)[C@@H]4C[C@H]54)nc4nc(-c5ccc(Cl)cc5Cl)ccc4c3=O)c21` (atropisomer, axis not shown; (P)) [Example 25, N—((S)-1-((3P)-3-(4-chloro-1-methyl-3-(methylsulfonamido)-1H-indazol-7-yl)-7-(2,4-dichlorophenyl)-4-oxo-3,4-dihydropyrido[2,3-d]pyrimidin-2-yl)-2-(3,5-difluorophenyl)ethyl)-2-((3bS,4aR)-3-(difluoromethyl)-5,5-difluoro-3b,4,4a,5-tetrahydro-1H-cyclopropa[3,4]cyclopenta[1,2-c]pyrazol-1-yl)acetamide], in data set [1], the EC50 was found to be 0.42 nM. The CC50 at 4 day in data set [2] is over 100 nM.

Turning to `COc1c(F)ccc(-c2ccc3c(=O)n(-c4ccc(Cl)c5c(NS(C)(=O)=O)nn(C)c45)c([C@H](Cc4cc(F)cc(F)c4)NC(=O)Cn4nc(C(F)F)c5c4C(F)(F)[C@@H]4C[C@H]54)nc3n2)c1F` (atropisomer, axis not shown; (P)) [Example 26, N—((S)-1-((3P)-3-(4-chloro-1-methyl-3-(methylsulfonamido)-1H-indazol-7-yl)-7-(2,4-difluoro-3-methoxyphenyl)-4-oxo-3,4-dihydropyrido[2,3-d]pyrimidin-2-yl)-2-(3,5-difluorophenyl)ethyl)-2-((3bS,4aR)-3-(difluoromethyl)-5,5-difluoro-3b,4,4a,5-tetrahydro-1H-cyclopropa[3,4]cyclopenta[1,2-c]pyrazol-1-yl)acetamide], the EC50 in data set [1] was found to be 0.062 nM. In addition, the CC50 at 4 day in data set [2] was over 100 nM.

For the compound `CS(=O)(=O)Nc1nn(CC(F)(F)F)c2c(-n3c([C@H](Cc4cc(F)cc(F)c4)NC(=O)Cn4nc(C(F)F)c5c4C(F)(F)[C@@H]4C[C@H]54)nc4nc(-c5ccccc5F)ccc4c3=O)ccc(Cl)c12` (atropisomer, axis not shown; (P)) [Example 27, N—((S)-1-((3P)-3-(4-chloro-3-(methylsulfonamido)-1-(2,2,2-trifluoroethyl)-1H-indazol-7-yl)-7-(2-fluorophenyl)-4-oxo-3,4-dihydropyrido[2,3-d]pyrimidin-2-yl)-2-(3,5-difluorophenyl)ethyl)-2-((3bS,4aR)-3-(difluoromethyl)-5,5-difluoro-3b,4,4a,5-tetrahydro-1H-cyclopropa[3,4]cyclopenta[1,2-c]pyrazol-1-yl)acetamide], the EC50 in data set [1] was 0.088 nM. Also, the half-maximal cytotoxic concentration (CC50) at 4 day in data set [2] was over 500 nM.

With `Cn1nc(NS(C)(=O)=O)c2c(Cl)ccc(-n3c([C@H](Cc4cc(F)cc(F)c4)NC(=O)Cn4nc(C(F)F)c5c4C(F)(F)[C@@H]4C[C@H]54)nc4nc(-c5c(F)cc(F)cc5F)ccc4c3=O)c21` (atropisomer, axis not shown; (P)) [Example 28, N—((S)-1-((3P)-3-(4-chloro-1-methyl-3-(methylsulfonamido)-1H-indazol-7-yl)-4-oxo-7-(2,4,6-trifluorophenyl)-3,4-dihydropyrido[2,3-d]pyrimidin-2-yl)-2-(3,5-difluorophenyl)ethyl)-2-((3bS,4aR)-3-(difluoromethyl)-5,5-difluoro-3b,4,4a,5-tetrahydro-1H-cyclopropa[3,4]cyclopenta[1,2-c]pyrazol-1-yl)acetamide], the EC50 in data set [1] was 0.032 nM. The compound also displayed a CC50 at 4 day in data set [2] of over 100 nM.

Take `Cn1nc(NS(C)(=O)=O)c2c(Cl)ccc(-n3c([C@H](Cc4cc(F)cc(F)c4)NC(=O)Cn4nc(C(F)F)c5c4C(F)(F)[C@@H]4C[C@H]54)nc4nc(-c5ccc(F)c(Cl)c5)ccc4c3=O)c21` (atropisomer, axis not shown; (P)) [Example 29, N—((S)-1-((3P)-3-(4-chloro-1-methyl-3-(methylsulfonamido)-1H-indazol-7-yl)-7-(3-chloro-4-fluorophenyl)-4-oxo-3,4-dihydropyrido[2,3-d]pyrimidin-2-yl)-2-(3,5-difluorophenyl)ethyl)-2-((3bS,4aR)-3-(difluoromethyl)-5,5-difluoro-3b,4,4a,5-tetrahydro-1H-cyclopropa[3,4]cyclopenta[1,2-c]pyrazol-1-yl)acetamide]: the EC50 in data set [1] was 0.12 nM. In data set [2], this compound showed a CC50 at 4 day of over 100 nM.

Consider `Cn1nc(NS(C)(=O)=O)c2c(Cl)ccc(-n3c([C@H](Cc4cc(F)cc(F)c4)NC(=O)Cn4nc(C(F)F)c5c4C(F)(F)[C@@H]4C[C@H]54)nc4nc(-c5ccc(F)c(C#N)c5)ccc4c3=O)c21` (atropisomer, axis not shown; (P)) [Example 30, N—((S)-1-((3P)-3-(4-chloro-1-methyl-3-(methylsulfonamido)-1H-indazol-7-yl)-7-(3-cyano-4-fluorophenyl)-4-oxo-3,4-dihydropyrido[2,3-d]pyrimidin-2-yl)-2-(3,5-difluorophenyl)ethyl)-2-((3bS,4aR)-3-(difluoromethyl)-5,5-difluoro-3b,4,4a,5-tetrahydro-1H-cyclopropa[3,4]cyclopenta[1,2-c]pyrazol-1-yl)acetamide], for which the EC50 in data set [1] stood at 0.078 nM. In addition, in data set [2], the CC50 at 4 day is over 100 nM.

On to `COc1nc2nc([C@H](Cc3cc(F)cc(F)c3)NC(=O)Cn3nc(C(F)(F)F)c4c3C(F)(F)[C@@H]3C[C@H]43)n(-c3ccc(Cl)c4c(NS(C)(=O)=O)nn(C)c34)c(=O)c2cc1-c1ccccc1F` (atropisomer, axis not shown; (P)) [Example 31, N—((S)-1-((3P)-3-(4-chloro-1-methyl-3-(methylsulfonamido)-1H-indazol-7-yl)-6-(2-fluorophenyl)-7-methoxy-4-oxo-3,4-dihydropyrido[2,3-d]pyrimidin-2-yl)-2-(3,5-difluorophenyl)ethyl)-2-((3bS,4aR)-5,5-difluoro-3-(trifluoromethyl)-3b,4,4a,5-tetrahydro-1H-cyclopropa[3,4]cyclopenta[1,2-c]pyrazol-1-yl)acetamide], for which the EC50 in data set [1] was determined as 0.16 nM. In data set [2], the half-maximal cytotoxic concentration (CC50) at 4 day is over 500 nM.

As for `CS(=O)(=O)Nc1nn(CC(F)F)c2c(-n3c([C@H](Cc4cc(F)cc(F)c4)NC(=O)Cn4ccc(C5CC5)n4)nc4nc(-c5ccccc5F)ccc4c3=O)ccc(Cl)c12` (atropisomer, axis not shown; (P)) [Example 33, (S)—N-(1-((3P)-3-(4-chloro-1-(2,2-difluoroethyl)-3-(methylsulfonamido)-1H-indazol-7-yl)-7-(2-fluorophenyl)-4-oxo-3,4-dihydropyrido[2,3-d]pyrimidin-2-yl)-2-(3,5-difluorophenyl)ethyl)-2-(3-cyclopropyl-1H-pyrazol-1-yl)acetamide], the concentration for a half-maximal effect (EC50) in data set [1] stood at 0.15 nM. Besides, in data set [2], the CC50 at 4 day is over 500 nM.

Take `Cn1nc(NS(C)(=O)=O)c2c(Cl)ccc(-n3c([C@H](Cc4cc(F)cc(F)c4)NC(=O)Cn4ccc(C5CC5)n4)nc4nc(-c5ccccc5F)ccc4c3=O)c21` (atropisomer, axis not shown; (P)) [Example 34, (S)—N-(1-((3P)-3-(4-chloro-1-methyl-3-(methylsulfonamido)-1H-indazol-7-yl)-7-(2-fluorophenyl)-4-oxo-3,4-dihydropyrido[2,3-d]pyrimidin-2-yl)-2-(3,5-difluorophenyl)ethyl)-2-(3-cyclopropyl-1H-pyrazol-1-yl)acetamide]: the half-maximal effective concentration (EC50) in data set [1] came out at 0.089 nM. In data set [2], this compound gave a CC50 at 4 day of over 500 nM.
